# In patent publication US6342483B1, “Method for detection and treatment of breast cancer” (Vanderbilt University, priority 1994, dated 2002):
# Assays:
# [1] = test system: human primary mammary epithelial cells; assay: Growth rate of primary mammary epithelial cells incubated with antisense or sense oligonucleotide; assay type: cell-based
# Excerpt: (§1) Unmodified 18 base deoxyribonucleotide complementary to the BRCA1 translation initiation site were synthesized and added to cultures of primary mammary epithelial cells (Stampfer et al. 1980) or MCF-7 breast cancer cells (Soule and McGrath, 1980). FIG. 12 is graph showing growth rate of human primary mammary epithelial cells (A), MCF-7 cells (B), retinal pigmented epithelial cells (C), cultured as described below. Points and bars represent the mean and the 95% confidence interval of triplicate counts of cells incubated with a single bolus of the indicated concentration of antisense or control sense deoxyribonucleotide.
# Antisense oligonucleotide studies. Unmodified deoxyribonucleotide were analyzed by gel electrophoresis and UV shadowing and shown to be homogenous and of appropriate size. These oligonucleotide were purified by multiple lyophilization and solubilized in buffered media as described (Holt et al. 1988). Sequence of the unmodified antiBRCA1 oligonucleotide 5′AAG AGC AGA TAA ATC CAT 3′(SEQ ID NO: 52) and the complementary sense oligonucleotide 5′ATG GAT TTA TCT GCT CTT 3′ (SEQ ID NO:53) correspond to the presumed translation initiation site at bases […] of the GenBank sequence. The antisense oligonucleotide sequence was searched against GenBank and no significant homologies were identified to genes except BRCA1. Oligonucleotides were used according to our published methods (Holt et al. 1988). Primary mammary epithelial cells were cultured in serum-free medium supplemented with epidermal growth factor, insulin, hydrocortisone, ethanolamine, phosphorylethanolamine, and bovine pituitary extract. MCF-7 cells were cultured in Minimum Essential Medium Eagle (Modified) with Earle's salts and 2g/L sodium bicarbonate m supplemented with 2 mM L-glutamine, GMS-A (Gibco Cat. #680-1300AD), nonessential amino acids, and 2.5% fetal calf serum. Retinal pigmented perithelial cells were cultured in DMEM and 10% calf serum.
# BRCA1 mRNA = assay: Nuclease protection assay of BRCA1 mRNA after antisense treatment; assay type: cell-based, human; conditions: compared with cells treated with sense control oligonucleotide; 40 uM, 4 days; lanes 9 and 10 FIG. 14 (primary mammary epithelial cells)
# Description: (§2) Antisense inhibition is a useful strategy for studying gene expression which is dependent on expression of the antisense target gene (Robinson-Benion and Holt, in press, 1995), e.g. genes whose expression is directly or indirectly dependent on BRCA1 levels. […] A nuclease protection assay of mRNA derived from primary mammary epithelial cells (lanes 1-4, 9-10) or MCF-7 cells Oanes 5-8, 11-12) cultured for 4 days with antisense or control oligonucleotide was performed under the following conditions: no oligonucleotide (lanes 1 and 5); 40 uM antiBRCA1 (lanes 2,6,10,12); 4 uM antiBRCA1 (lanes 3 and 7); 40 uM sense control (lanes 4,8,9,11). Probes for BRCA1 and GAPD are as described for FIG. 10, and the ribonucleotide reductase M2 probe (RR) detects the 200 bp probe is described above.
# (§3) Nuclease Protection Assays. PCR primers were derived from BRCA1 sequence in GenBank (Accession number U14680); forward 5′CAA TTG GGC AGA TGT GT 3′ (SEQ ID NO:50) and reverse 5′CTGGGGGATCTGGGGTATCA 3′ (SEQ ID NO:51) which amplify a 113 bp region from exon 24, corresponding to bases 5587 to 5699 of the human BRCA1. This region was selected because this exon has not been reported to be differentially spliced unlike more 5′ exons. […]
# (§4) Antisense oligonucleotide studies. Unmodified deoxyribonucleotide were analyzed by gel electrophoresis and UV shadowing and shown to be homogenous and of appropriate size. […]
# [2] = test system: ribonucleotide reductase M2 mRNA; assay: Nuclease protection assay of ribonucleotide reductase M2 mRNA after antisense treatment, MCF-7 cells; assay type: cell-based, human; conditions: 40 uM, cultured 4 days
# Description: as §2, §3, §4
# [3] = test system: ribonucleotide reductase M2 mRNA; assay: Nuclease protection assay of ribonucleotide reductase M2 mRNA after antisense treatment, primary mammary epithelial cells; assay type: cell-based, human; conditions: 40 uM, cultured 4 days
# Description: as §2, §3, §4
# [4] = test system: MCF-7 breast cancer cells; assay: Growth rate of MCF-7 cells incubated with antisense or sense oligonucleotide; assay type: cell-based, human; conditions: 40 uM oligonucleotide, single bolus, FIG. 12B
# Excerpt: as §1
# (§5) Antisense oligonucleotide studies. Unmodified deoxyribonucleotide were analyzed by gel electrophoresis and UV shadowing and shown to be homogenous and of appropriate size. These oligonucleotide were purified by multiple lyophilization and solubilized in buffered media as described (Holt et al. 1988). Sequence of the unmodified antiBRCA1 oligonucleotide 5′AAG AGC AGA TAA ATC CAT 3′(SEQ ID NO: 52) and the complementary sense oligonucleotide 5′ATG GAT TTA TCT GCT CTT 3′ (SEQ ID NO:53) correspond to the presumed translation initiation site at bases 12-137 of the GenBank sequence. The antisense oligonucleotide sequence was searched against GenBank and no significant homologies were identified to genes except BRCA1. […]
# [5] = test system: human retinal pigmented epithelial cells; assay: Growth rate of retinal pigmented epithelial cells incubated with antisense or sense oligonucleotide; assay type: cell-based; conditions: 40 uM oligonucleotide, single bolus; FIG. 12C
# Excerpt: as §1, §5
# MCF-7 cells = assay: Nuclear labelling with tritiated thymidine in synchronized MCF-7 cells; assay type: cell-based, human; conditions: tamoxifen 48 hours, then 1 uM estradiol
# Excerpt: (§6) In order to critically evaluate the function of BRCA1 gene inhibition on growth stimulation and cell cycle progression it was necessary to identify a gene whose expression is cell cycle regulated in human mammary cells. […] Because ribonucleotide reductase constitutes the rate limiting step in DNA synthesis, we reasoned that it might be cell cycle regulated in a synchronous growth model such as MCF-7 cells which can be growth arrested by tamoxifen and then restimulated by estrogen (Aitken et al. 1985, Arteaga et al. 1989). MCF-7 cells were growth arrested by tamoxifen for 48 hours and then stimulated at time zero (0) with 1 uM estradiol (+E) or control vehicle (−E).
# [6] = test system: ribonucleotide reductase M2 gene; assay: Northern blot and nuclear run on of ribonucleotide reductase M2 in synchronized MCF-7 cells; assay type: cell-based, human; conditions: tamoxifen 48 hours, then 1 uM estradiol
# Excerpt: as §6
# FIG. 13A is a Northern blot of mRNA from synchronized MCF-7 cells. At the indicated time in hours, total cellular RNA was isolated and Northern blotting performed using the 1.6 Kb Eco RI fragment from our cloned human ribonucleotide reductase cDNA described above. Two mRNA species of 1.6 and 3.4 Kb are observed in these studies.
# Con represents cells which were grown for 48 hours but not treated with tamoxifen.
compound,measurement,setting,value
"sense oligomer: Complementary sense control oligonucleotide with the same GC content, 5′ATG GAT TTA TCT GCT CTT 3′ (SEQ ID NO:53) (sense ATGGATTTATCTGCTCTT; further chemistry not given here) [reference compound]",growth activation by anti-BRCA1 oligomer,"[1]; 10 fold excess of sense oligomer added to the anti-BRCA1 oligomer, cell line not specified",reversed the growth activation
same,proliferation rate,"[1]; control oligomer with the same GC content, cell line not specified",did not increase the proliferation rate
"anti-BRCA1 oligonucleotide: Unmodified 18 base deoxyribonucleotide complementary to the BRCA1 translation initiation site, 5′AAG AGC AGA TAA ATC CAT 3′ (SEQ ID NO: 52) (antisense AAGAGCAGATAAATCCAT; unmodified DNA)",inhibition of BRCA1 mRNA levels,BRCA1 mRNA,70-90%
same,ribonucleotide reductase mRNA levels,[2],highest
same,ribonucleotide reductase mRNA levels,[3],highest
same,growth of normal mammary cells,"[1]; 40 uM oligonucleotide, single bolus, FIG. 12A",accelerated growth
same,morphologic appearance of the cell lines,[1]; addition of antisense oligonucleotide,not noticeably changed
same,proliferative rate of the cell lines,"[1]; addition of antisense oligonucleotide, dose not stated",faster
same,cell growth rate,"[1]; intermediate dose, cell line not given",less pronounced but significant increase
same,growth of malignant mammary cells,[4],accelerated growth
same,growth of human retinal pigmented epithelial cells,[5],did not affect the growth
"C[C@]12CC[C@@H]3c4ccc(O)cc4CC[C@H]3[C@@H]1CC[C@@H]2O [estrogen, estradiol]",DNA synthesis,MCF-7 cells,induction of synthesis
same,transcription of the ribonucleotide reductase M2 gene,[6],induced
CC/C(=C(\c1ccccc1)c1ccc(OCCN(C)C)cc1)c1ccccc1 [tamoxifen],DNA synthesis,MCF-7 cells,Inhibition of DNA synthesis
same,transcription of the ribonucleotide reductase M2 gene,[6],inhibited
